What was measured:
[1] = Hydrolysis stability of NRTOCl emulsions and NRCl in water at room temperature for 42 days; format: physicochemical; conditions: room temperature, 42 days
Procedure: After each specific time of stability for NRTOCl and NRCl emulsions, 1.5 mL of each emulsion was centrifuged (14,000 rpm) for 20 minutes at room temperature. […] However, during this time of stability study, 52.0% NR was intact in water at room temperature. […] During this time, these emulsions were stable without visible phase separation. A little increase in the average size of the NRTO droplets occurred in these emulsions, so that in Cas emulsion, the average size increased from 1020 nm to 1281 nm, and in Cas-Lec emulsion, this parameter increased from 1012 nm to 1106 nm.

[2] = Stability of NRTOCl and NRCl in DI water at 35° C. for 28 days (released nicotinamide by HPLC); format: physicochemical; conditions: DI water, 1000 ppm, 28 days
Procedure: Although NRTOCl is a quaternary ammonium salt, it was not dissolved in water due to the existence of three groups of oleate fatty ester in its structure. Therefore, for the stability study of NRTOCl, this compound was dispersed in DI water using 1% ethanol as a cosolvent. For this purpose, 15 mg of NRTOCl was dissolved in 0.15 ml of ethanol (1%) and then 14.85 ml of DI water was added to the mixture and gently shaken. […] Although the average size of NRTOCl in this sample was 192 nm, the images of TEM disclosed smaller particles with around 50 nm and oval and spherical shapes with aspect ratio close to unity (FIGS. 10A-10C). In the nanoparticles, the NRTOCl structures are stacked on top of each other layer-by-layer. The highly positive charge of NRTO makes the nanoparticles stable in the aqueous phase. After dispersion of NRTOCl in DI water, NRCl was dissolved in DI water, and the stability of these samples were studied at 35° C. for 28 days (FIG. 11). The concentration of each sample was 1000 ppm. As during the hydrolysis reaction of NRTO and NR, both of these compounds released nicotinamide (FIG. 12), and by measuring the released amount of nicotinamide in each sample with HPLC, the remaining amounts of NRTO and NR in each sample were calculated. During this study, any release of NR from NRTO sample was not detected. It signifies that the heavy ester groups in NRTO sample are not hydrolyzed during the time of stability study. Because this study was performed in DI water and the conditions were mild, the NRTO was hydrolyzed from its N-glycoside bond.

[3] = Hydrolysis stability of NRTOCl and NRCl oil-in-water emulsions and NRCl in water at 35° C. for 26 days; format: physicochemical
Procedure: The emulsion was prepared using 480 mg of oil stock containing 15 wt. % NRTOCl in canola oil and an aqueous phase (14.52 g) of Na-caseinate (2 wt. %), KCl (0.3 wt. %), NaCl (0.1 wt. %), CaCl2 (0.2 wt. %) and NaN3 (0.01 wt. %).
The emulsion was-prepared using 480 mg of oil stock containing 15 wt. % NRTOCl in canola oil and 0.025 g of lecithin. The aqueous phase (14.5 g) contained Na-caseinate (2 wt. %), KC (0.3 wt. %), NaCl (0.1 wt. %), CaCl2 (0.2 wt. %) and NaN3 (0.01 wt. %).
The emulsion was-prepared using 480 mg of oil stock containing 15 wt. % NRTOCl in canola oil and an aqueous phase (14.52 g) of polysorbate 80 (Tween 80) (2 wt. %).
The emulsion was prepared using around 480 mg of canola oil in an aqueous phase (14.52 g) of NRCl (19 mg), Na-caseinate (2 wt. %), KCl (0.3 wt. %), NaCl (0.1 wt. %), CaCl2 (0.2 wt. %) and NaN3 (0.01 wt. %).
After each specific time of stability for NRTOCl and NRCl emulsions, 1.5 mL of each emulsion was centrifuged (14,000 rpm) for 20 minutes at room temperature.
Since NRTOCl is a very hydrophobic compound, to evaluate its stability in oil phase, an emulsion system was used to study the stability of NRTOCl as a function of time. For this purpose, a 15% w/w solution of NRTOCl in canola oil was used for making different emulsions with Na-caseinate, Tween 80 and lecithin as the emulsifiers (2 wt. %) at room temperature.
When Na-caseinate was used as an emulsifier, the aqueous phase must be a solution of NaCl (0.1 wt. %), CaCl2 (0.2 wt. %) and KCl (0.3 wt. %) because caseinate anion with minus charge and NRTO with positive charge immediately aggregated in DI water. The total oil phase in these emulsions were 3.2 wt. %, and the concentration of NRTOCl in total volume of each emulsion (15 mL) was 4.4 mM. In the emulsions that used Na-caseinate as an emulsifier, NaN3 (0.01 wt. %) was added to prevent the growth of bacteria. When the NRTOCl emulsion was made by 2 wt. % Na-caseinate, its average size and zeta potential in this emulsion (Cas emulsion) were 1020 nm and −14.4 mV respectively.
After making NRTOCl emulsions, a NRCl in canola oil-in-water emulsion was attempted as a control experiment using 3.2% canola oil. The aqueous phase was a solution of Na-caseinate (2 wt. %), NaCl (0.1 wt. %), CaCl2 (0.2 wt. %), KCl (0.3 wt. %) and NaN3 (0.01 wt. %). The concentration of NRCl in total volume (15 mL) of this emulsion was 4.4 mM. Moreover, 15 mL of NRCl solution in DI water was prepared with 4.4 mM concentration as the other control experiment. After preparing three NRTOCl emulsions and two control experiment samples, hydrolysis stability of each sample was studied at 35° C. for 26 days (FIG. 14). The rate of degradation was measured by determination of the released nicotinamide from each sample. […]

[4] = tested on: NAD+ level in mammalian cell; conditions: cited from earlier work
[5] = Solubility study of NRTBCl in long and medium chain triglycerides and in water at different pH; format: physicochemical
Procedure: To study the solubility of NRTBCl in long chain triglycerides, we tried to dissolve this compound in olive oil and corn oil. For this purpose, 15 mg of NRTBCl was added to 15 ml of olive oil and vigorously shaked with vortex for 10 minutes at room temperature. […] This procedure was repeated by using corn oil instead of olive oil and the obtained results disclosed that NRTB was insoluble in corn oil. To study the solubility of NRTBCl in medium chain triglycerides, we tried to dissolve this compound in coconut oil. For this purpose, 15 mg of NRTBCl was added to 15 ml of coconut oil and vigorously shaked with vortex for 10 minutes at room temperature. […] To study the solubility of NRTB in water, three aqueous solutions of NRTBCl were prepared with 10000 ppm concentration at pH 5, 7, and 9.

[6] = NRTBCl stability measurement in MQ water at 35° C.; format: physicochemical; conditions: 6 days, 1000 ppm, preliminary
Procedure: The stability study of the NRTBCl was performed by dissolving NRTB in MQ water and keeping at 35° C. for 6 days. The concentration of each sample was 1000 ppm. […] The reason for increasing the intensity of the peak at 33 min (flow rate: 0.75 mL/min), is that the byproduct of degradation is nicotinamide (NA), which has the retention time of 33 min (exactly as NRTBCl).

[7] = 15 mg in 15 ml, vortex 10 minutes, room temperature

NR hydrolyzed after 42 days [1] | NR intact in water after 42 days ([1]; water) | remaining amount after 28 days [2] | solubility in the oil phase of the emulsion [3] | solubility (general statement) [5] | solubility in coconut oil [5, 7] | solubility in corn oil [5, 7] | solubility in olive oil [5, 7] | solubility in water at different pH ([5]; 10000 ppm, pH 5, 7, and 9, zeta sizer) | hydrolysis stability in MQ water [6] | SMILES | boost of the level of NAD+ in mammalian cell [4]
48% | 52.0% | 0.6% | cannot be dissolved | – | – | – | – | – | – | NC(=O)c1ccc[n+]([C@@H]2O[C@H](CO)[C@@H](O)[C@H]2O)c1.[Cl-] [NRCl, Nicotinamide riboside chloride, reference compound] | up to two fold
– | – | – | – | did not demonstrate good solubility | not dissolved | insoluble | not dissolved | completely be dissolved | easily hydrolyzed | CCCC(=O)OC[C@H]1O[C@@H]([n+]2cccc(C(N)=O)c2)[C@H](OC(=O)CCC)[C@@H]1OC(=O)CCC.[Cl-] [NRTBCl, nicotinamide riboside tributyrates chloride] | –

From US20240424010A1, “NICOTINAMIDE RIBOSIDE TRIOLEATES CHLORIDE, COMPOSITIONS CONTAINING THIS COMPOUND, AND METHODS OF MAKING AND USING THIS COMPOUND” (SOCIETE DES PRODUITS NESTLE S.A., priority 2021, published 2024)
